# Patent publication US9244073B2, “Assays for detecting enzymatic activity” (Wellstat Diagnostics, LLC, priority 2011, dated 2016)
# Columns and labels:
# FXa [1] = assay: Detecting FXa activity with biotin- and TAG Plus-conjugated substrate (ECL, loss of signal on cleavage); format: biochemical
# Source text: FXa activity can be measured through the use of peptides that include a FXa recognition sequence, a biotin at one terminus of the peptide and a BV-TAG Plus at the other terminus. In this embodiment, FXa recognizes and specifically cleaves the peptide between the arginine amino acid and the next amino acid toward the carboxy terminus, e.g., between arginine and glycine in peptide probe sequences I and II below. The cleavage by FXa results in the separation of biotin from the BV-TAG Plus. When the biotin is captured with streptavidin coated microparticles (Dynabeads M280-SA, Invitrogen, Cat: 112-06D), this loss of BV-TAG Plus can be measured quantitatively by an ECL instrument such as the M-SERIES® M1MR Analyzer (BioVeris Corporation, Gaithersburg, Md.).
# A FXa activity calibrator curve was set up in a 96-well U bottom microtiter plate containing a serial dilution of FXa in an assay buffer [20 mM Tris-HCl (pH 7.2), 100 mM NaCl, 0.5% BSA and 6.0 mM CaCl2], with either peptide probe sequence I or II and M280-SA beads (Dynabeads M280-SA, Invitrogen, Cat: 112-06D). To each well was added 50 μL of 2-fold serial dilutions of FXa from 5000, 2500, 1250, 625, 313, 156 and 78.1 ng/mL and 50 μL of peptide probe (sequence I or II) at 10.0 ng/mL. The plate was incubated for 50 minutes on a MicroMix 5 shaker (Siemens) at room temperature and then 20 μL of 500 μg/mL M280-SA beads were added for an additional 10-minute incubation. The beads were washed once in 150 μL of a PBS-based buffer solution containing 1.8 mM KH2PO4, 10 mM Na2HPO4, 120 mM NaCl, 2.7 mM KCl, 0.033% Tween20 and 0.10% KATHON® CG/ICP II (Cat: 48178-U. Sigma, St. Louis, Mo.) and recovered by attaching a plate magnet to the 96-well plate (LIFESEP™ 96F, Dexter Magnetic Technologies Inc., Elk Grove Village, Ill. 60007). Beads were resuspended in 150 μL of the same PBS-based buffer and read in a M1MR Analyzer (Bioveris).
# FXa [2] = assay: Detecting FXa activity by capturing the TAG-labeled neoepitope with anti-FLAG M1 beads (ECL); format: biochemical
# Experimental: A FXa activity calibrator curve was set up in a 96-well U bottom microtiter plate containing 50 μL of a 3-fold serial dilution of FXa at 1000, 333, 111, 37.0, 12.3, 4.12 and 1.37 ng/mL in the assay buffer (Example 4) and 25 μL of NH2-IEGRDYKDDDDKGS-TAG (SEQ ID NO:5) (1.25, 2.5 or 5.0 μg/mL) in a hot plate at 37° C. for 10 minutes. After the incubation, 50 μL of Bi-anti-FLAG®-M1 antibody prebound beads (200 μg/mL concentration at the ratio of 10 μg of antibody per 1.0 mg of beads) were added, followed by an incubation for another 20 minutes at 37° C. After the incubation, the beads were washed once in 150 μL of the PBS-based buffer solution (Example 3) and were resuspended in 150 μL of the PBS-based buffer before beads were read in a M1MR analyzer (BioVeris).
# [3] = substrate 1.25 μg/mL, FXa 1.37 ng/mL
# [4] = substrate 1.25 μg/mL, FXa 4.12 ng/mL
# [5] = substrate 1.25 μg/mL, FXa 12.3 ng/mL
# [6] = substrate 1.25 μg/mL, FXa 37.0 ng/mL
# [7] = substrate 1.25 μg/mL, FXa 111 ng/mL
# [8] = substrate 1.25 μg/mL, FXa 333 ng/mL
# [9] = substrate 1.25 μg/mL, FXa 1000 ng/mL
# [10] = substrate 2.5 μg/mL, FXa 1.37 ng/mL
# [11] = substrate 2.5 μg/mL, FXa 4.12 ng/mL
# [12] = substrate 2.5 μg/mL, FXa 12.3 ng/mL
# [13] = substrate 2.5 μg/mL, FXa 37.0 ng/mL
# [14] = substrate 2.5 μg/mL, FXa 111 ng/mL
# [15] = substrate 2.5 μg/mL, FXa 333 ng/mL
# [16] = substrate 2.5 μg/mL, FXa 1000 ng/mL
# [17] = substrate 5.0 μg/mL, FXa 1.37 ng/mL
# [18] = substrate 5.0 μg/mL, FXa 4.12 ng/mL
# [19] = substrate 5.0 μg/mL, FXa 12.3 ng/mL
# [20] = substrate 5.0 μg/mL, FXa 37.0 ng/mL
# [21] = substrate 5.0 μg/mL, FXa 111 ng/mL
# [22] = substrate 5.0 μg/mL, FXa 333 ng/mL
# [23] = substrate 5.0 μg/mL, FXa 1000 ng/mL
# FXa, sequence (P00742 41-179 limits assumed): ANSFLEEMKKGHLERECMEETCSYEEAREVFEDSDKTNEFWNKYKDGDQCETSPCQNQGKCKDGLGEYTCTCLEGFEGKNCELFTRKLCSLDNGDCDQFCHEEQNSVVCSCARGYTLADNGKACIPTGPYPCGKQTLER
# FXa, sequence (P00742 235-488 limits assumed): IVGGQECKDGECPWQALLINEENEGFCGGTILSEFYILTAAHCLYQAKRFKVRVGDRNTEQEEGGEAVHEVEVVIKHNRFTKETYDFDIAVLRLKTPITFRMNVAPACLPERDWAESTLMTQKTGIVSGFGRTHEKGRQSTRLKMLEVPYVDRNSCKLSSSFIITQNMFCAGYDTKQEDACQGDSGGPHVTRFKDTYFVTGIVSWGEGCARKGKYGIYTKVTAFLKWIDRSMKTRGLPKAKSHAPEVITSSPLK
substance,measurement,setting,value
Biotin-(mPeg2)IEGRGS (KBv TAG Plus) amide [Peptide Probe Sequence II],% Signal Decrease,FXa [1]; FXa 78.1 ng/mL,0%
same,Mean Signal,FXa [1]; FXa 78.1 ng/mL,339795
same,% Signal Decrease,FXa [1]; FXa 156 ng/mL,−4%
same,Mean Signal,FXa [1]; FXa 156 ng/mL,325928
same,% Signal Decrease,FXa [1]; FXa 313 ng/mL,−11%
same,Mean Signal,FXa [1]; FXa 313 ng/mL,302632
same,% Signal Decrease,FXa [1]; FXa 625 ng/mL,−10%
same,Mean Signal,FXa [1]; FXa 625 ng/mL,305778
same,% Signal Decrease,FXa [1]; FXa 1250 ng/mL,−24%
same,Mean Signal,FXa [1]; FXa 1250 ng/mL,256745
same,% Signal Decrease,FXa [1]; FXa 2500 ng/mL,−39%
same,Mean Signal,FXa [1]; FXa 2500 ng/mL,208649
same,% Signal Decrease,FXa [1]; FXa 5000 ng/mL,−66%
same,Mean Signal,FXa [1]; FXa 5000 ng/mL,116839
Biotin-IEGRGS (KBv TAG Plus) amide [Peptide Probe Sequence I],% Signal Decrease,FXa [1]; FXa 78.1 ng/mL,−3%
same,Mean Signal,FXa [1]; FXa 78.1 ng/mL,413958
same,% Signal Decrease,FXa [1]; FXa 156 ng/mL,−3%
same,Mean Signal,FXa [1]; FXa 156 ng/mL,413232
same,% Signal Decrease,FXa [1]; FXa 313 ng/mL,−9%
same,Mean Signal,FXa [1]; FXa 313 ng/mL,388137
same,% Signal Decrease,FXa [1]; FXa 625 ng/mL,−15%
same,Mean Signal,FXa [1]; FXa 625 ng/mL,363185
same,% Signal Decrease,FXa [1]; FXa 1250 ng/mL,−31%
same,Mean Signal,FXa [1]; FXa 1250 ng/mL,296182
same,% Signal Decrease,FXa [1]; FXa 2500 ng/mL,−53%
same,Mean Signal,FXa [1]; FXa 2500 ng/mL,202007
same,% Signal Decrease,FXa [1]; FXa 5000 ng/mL,−76%
same,Mean Signal,FXa [1]; FXa 5000 ng/mL,103604
NH2-IEGRDYKDDDDKGS-TAG (TAG label; includes cleavage recognition site and binding site for anti-FLAG antibody),Mean Signal,FXa [2]; [3],1140
same,Signal/Background,FXa [2]; [3],1.9
same,Mean Signal,FXa [2]; [4],2174
same,Signal/Background,FXa [2]; [4],3.7
same,Mean Signal,FXa [2]; [5],4437
same,Signal/Background,FXa [2]; [5],7.5
same,Mean Signal,FXa [2]; [6],10667
same,Signal/Background,FXa [2]; [6],18
same,Mean Signal,FXa [2]; [7],20521
same,Signal/Background,FXa [2]; [7],35
same,Mean Signal,FXa [2]; [8],52797
same,Signal/Background,FXa [2]; [8],89
same,Mean Signal,FXa [2]; [9],69011
same,Signal/Background,FXa [2]; [9],116
same,Mean Signal,FXa [2]; [10],1393
same,Signal/Background,FXa [2]; [10],1.6
same,Mean Signal,FXa [2]; [11],3828
same,Signal/Background,FXa [2]; [11],4.5
same,Mean Signal,FXa [2]; [12],7696
same,Signal/Background,FXa [2]; [12],9.0
same,Mean Signal,FXa [2]; [13],20144
same,Signal/Background,FXa [2]; [13],24
same,Mean Signal,FXa [2]; [14],41788
same,Signal/Background,FXa [2]; [14],49
same,Mean Signal,FXa [2]; [15],62747
same,Signal/Background,FXa [2]; [15],73
same,Mean Signal,FXa [2]; [16],78193
same,Signal/Background,FXa [2]; [16],91
same,Mean Signal,FXa [2]; [17],3725
same,Signal/Background,FXa [2]; [17],2.1
same,Mean Signal,FXa [2]; [18],6363
same,Signal/Background,FXa [2]; [18],3.6
same,Mean Signal,FXa [2]; [19],14866
same,Signal/Background,FXa [2]; [19],8.4
same,Mean Signal,FXa [2]; [20],32274
same,Signal/Background,FXa [2]; [20],18
same,Mean Signal,FXa [2]; [21],62147
same,Signal/Background,FXa [2]; [21],35
same,Mean Signal,FXa [2]; [22],78710
same,Signal/Background,FXa [2]; [22],45
same,Mean Signal,FXa [2]; [23],86900
same,Signal/Background,FXa [2]; [23],49
